Experimental data reported in publication PMC5666424, “Marine-Derived 2-Aminoimidazolone Alkaloids. Leucettamine B-Related Polyandrocarpamines Inhibit Mammalian and Protozoan DYRK & CLK Kinases” (Marine Drugs, 2017).

Legend:
Assay in all cases: KinomeScan
Format in all cases: binding
Details in all cases: 1 μM
[1] = target: T1, IRAK4 (Homo sapiens, UniProt Q9NWZ3)
T1 construct: purchased DiscoverX (KINOMEscan)
Method: (§1) Assays were performed essentially as described previously. For most assays, kinase-tagged T7 phage strains were grown in parallel in 24-well blocks in an E. coli host derived from the BL21 strain. E. coli were grown to log-phase and infected with T7 phage from a frozen stock (multiplicity of infection ~0.1) and incubated with shaking at 32 °C until lysis (~90 min). The lysates were centrifuged (6000× g) and filtered (0.2 μm) to remove cell debris. The remaining kinases were produced in HEK-293 cells and subsequently tagged with DNA for qPCR detection. […] The liganded beads were blocked with excess biotin and washed with blocking buffer (SeaBlock (Pierce, ThermoFisher Scientific, Illkirch, France), 1% BSA, 0.05% Tween 20, 1 mM DTT) to remove unbound ligand and to reduce non-specific phage binding. […] An 11-point threefold serial dilution of each test compound was prepared in 100% DMSO at 100× final test concentration which and subsequently diluted to 1× in the assay. All reactions were performed in polystyrene 96-well plates in a final volume of 0.135 mL. […] The kinase concentration in the eluates was measured by qPCR.

[2] = target: T2, CIT (Homo sapiens, UniProt O14578)
T2 construct: purchased DiscoverX (KINOMEscan)
Method: as §1

[3] = target: T3, SNARK (Homo sapiens, UniProt Q9H093)
T3 construct: purchased DiscoverX (KINOMEscan)
Method: as §1

[4] = target: T4, WEE1 (Homo sapiens, UniProt P30291)
T4 construct: purchased DiscoverX (KINOMEscan)
Method: as §1

[5] = target: T5, IGF1R (Homo sapiens, UniProt P08069)
T5 construct: purchased DiscoverX (KINOMEscan)
Method: as §1

[6] = target: T6, CSNK1A1L (Homo sapiens, UniProt Q8N752)
T6 construct: purchased DiscoverX (KINOMEscan)
Method: as §1

[7] = target: T7, TYK2(JH2domain-pseudokinase) (Homo sapiens, UniProt P29597)
T7 construct: TYK2(JH2domain-pseudokinase); purchased DiscoverX (KINOMEscan)
Method: as §1

[8] = target: T8, YSK4 (Homo sapiens, UniProt Q56UN5)
T8 construct: purchased DiscoverX (KINOMEscan)
Method: as §1

[9] = target: T9, MST1 (Homo sapiens, UniProt Q13043)
T9 construct: purchased DiscoverX (KINOMEscan)
Method: as §1

[10] = target: T10, HIPK4 (Homo sapiens, UniProt Q8NE63)
T10 construct: purchased DiscoverX (KINOMEscan)
Method: as §1

[11] = target: T11, MARK1 (Homo sapiens, UniProt Q9P0L2)
T11 construct: purchased DiscoverX (KINOMEscan)
Method: as §1

[12] = target: T12, TESK1 (Homo sapiens, UniProt Q15569)
T12 construct: purchased DiscoverX (KINOMEscan)
T12 sequence (Q15569 whole entry): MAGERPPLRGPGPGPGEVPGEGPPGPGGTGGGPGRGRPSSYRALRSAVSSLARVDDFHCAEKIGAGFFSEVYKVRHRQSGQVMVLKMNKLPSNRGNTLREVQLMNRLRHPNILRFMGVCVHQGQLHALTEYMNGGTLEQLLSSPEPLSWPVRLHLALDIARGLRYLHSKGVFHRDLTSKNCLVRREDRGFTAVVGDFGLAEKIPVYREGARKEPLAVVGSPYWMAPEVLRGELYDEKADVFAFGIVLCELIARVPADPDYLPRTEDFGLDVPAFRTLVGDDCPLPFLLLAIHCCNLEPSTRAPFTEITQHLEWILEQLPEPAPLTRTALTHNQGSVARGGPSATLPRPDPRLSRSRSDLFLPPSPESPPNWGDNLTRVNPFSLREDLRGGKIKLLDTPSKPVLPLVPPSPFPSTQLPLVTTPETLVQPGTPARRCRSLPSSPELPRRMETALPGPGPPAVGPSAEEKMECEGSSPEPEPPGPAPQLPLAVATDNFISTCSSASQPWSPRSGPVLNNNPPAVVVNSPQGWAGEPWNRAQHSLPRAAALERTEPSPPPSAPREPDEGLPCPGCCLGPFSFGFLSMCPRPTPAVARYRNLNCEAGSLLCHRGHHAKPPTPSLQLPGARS
Method: as §1

[13] = target: T13, ABL1(H396P)-phosphorylated (Homo sapiens, UniProt P00519, H396P)
T13 construct: purchased DiscoverX (KINOMEscan)
Method: as §1

[14] = target: T14, ACVR1 (Homo sapiens, UniProt Q04771)
T14 construct: purchased DiscoverX (KINOMEscan)
Method: as §1

[15] = target: T15, FGR (Homo sapiens, UniProt P09769)
T15 construct: purchased DiscoverX (KINOMEscan)
Method: as §1

[16] = target: T16, EGFR(E746-A750del) (Homo sapiens, UniProt P00533, DEL746-750)
T16 construct: purchased DiscoverX (KINOMEscan)
Method: as §1

[17] = target: T17, LZK (Homo sapiens, UniProt O43283)
T17 construct: purchased DiscoverX (KINOMEscan)
Method: as §1

[18] = target: T18, NEK7 (Homo sapiens, UniProt Q8TDX7)
T18 construct: purchased DiscoverX (KINOMEscan)
Method: as §1

[19] = target: T19, ABL2 (Homo sapiens, UniProt P42684)
T19 construct: purchased DiscoverX (KINOMEscan)
Method: as §1

[20] = target: T20, TYK2(JH1domain-catalytic) (Homo sapiens, UniProt P29597)
T20 construct: TYK2(JH1domain-catalytic); purchased DiscoverX (KINOMEscan)
Method: as §1

[21] = target: T21, CSNK1E (Homo sapiens, UniProt P49674)
T21 construct: purchased DiscoverX (KINOMEscan)
T21 sequence (P49674 whole entry): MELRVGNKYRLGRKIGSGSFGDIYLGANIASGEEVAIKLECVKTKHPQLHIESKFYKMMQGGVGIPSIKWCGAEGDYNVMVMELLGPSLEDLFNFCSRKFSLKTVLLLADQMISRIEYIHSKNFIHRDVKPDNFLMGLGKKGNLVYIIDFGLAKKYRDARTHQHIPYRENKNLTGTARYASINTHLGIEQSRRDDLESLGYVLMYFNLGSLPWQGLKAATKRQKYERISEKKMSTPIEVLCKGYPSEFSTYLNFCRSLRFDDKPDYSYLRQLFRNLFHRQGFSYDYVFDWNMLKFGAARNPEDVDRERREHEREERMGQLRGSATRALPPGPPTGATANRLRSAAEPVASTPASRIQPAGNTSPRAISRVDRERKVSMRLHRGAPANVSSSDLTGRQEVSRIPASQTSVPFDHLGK
Method: as §1

[22] = target: T22, ABL1(F317I)-nonphosphorylated (Homo sapiens, UniProt P00519, F317I)
T22 construct: purchased DiscoverX (KINOMEscan)
Method: as §1

[23] = target: T23, EPHB1 (Homo sapiens, UniProt P54762)
T23 construct: purchased DiscoverX (KINOMEscan)
T23 sequence (P54762 18-984): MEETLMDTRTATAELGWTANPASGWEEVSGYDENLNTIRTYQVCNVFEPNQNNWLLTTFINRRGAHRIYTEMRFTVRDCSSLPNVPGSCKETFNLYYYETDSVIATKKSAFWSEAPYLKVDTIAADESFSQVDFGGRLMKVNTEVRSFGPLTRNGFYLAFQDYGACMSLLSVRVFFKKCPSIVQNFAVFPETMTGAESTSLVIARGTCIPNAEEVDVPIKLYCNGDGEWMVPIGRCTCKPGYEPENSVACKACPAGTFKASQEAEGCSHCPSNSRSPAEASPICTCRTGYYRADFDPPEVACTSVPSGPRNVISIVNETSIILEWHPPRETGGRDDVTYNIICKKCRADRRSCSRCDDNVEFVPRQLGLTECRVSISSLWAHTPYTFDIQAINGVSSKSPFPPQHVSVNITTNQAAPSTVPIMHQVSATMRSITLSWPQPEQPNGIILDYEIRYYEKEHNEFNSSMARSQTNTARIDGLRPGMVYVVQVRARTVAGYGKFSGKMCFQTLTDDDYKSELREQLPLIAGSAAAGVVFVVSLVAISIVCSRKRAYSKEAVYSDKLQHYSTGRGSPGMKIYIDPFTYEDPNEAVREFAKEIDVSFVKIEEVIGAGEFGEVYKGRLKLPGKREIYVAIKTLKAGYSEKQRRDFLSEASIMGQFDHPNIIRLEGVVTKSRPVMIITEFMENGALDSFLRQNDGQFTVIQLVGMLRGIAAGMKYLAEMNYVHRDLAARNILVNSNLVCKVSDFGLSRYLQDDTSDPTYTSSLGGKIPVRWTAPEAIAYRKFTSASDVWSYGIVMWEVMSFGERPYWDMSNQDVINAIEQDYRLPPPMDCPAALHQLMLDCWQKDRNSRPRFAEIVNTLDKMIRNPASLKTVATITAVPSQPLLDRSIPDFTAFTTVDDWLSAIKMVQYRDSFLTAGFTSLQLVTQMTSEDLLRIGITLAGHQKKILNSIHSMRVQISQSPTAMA
Method: as §1

[24] = target: T24, AMPK-alpha2 (Homo sapiens, UniProt P54646)
T24 construct: purchased DiscoverX (KINOMEscan)
T24 sequence (P54646 whole entry): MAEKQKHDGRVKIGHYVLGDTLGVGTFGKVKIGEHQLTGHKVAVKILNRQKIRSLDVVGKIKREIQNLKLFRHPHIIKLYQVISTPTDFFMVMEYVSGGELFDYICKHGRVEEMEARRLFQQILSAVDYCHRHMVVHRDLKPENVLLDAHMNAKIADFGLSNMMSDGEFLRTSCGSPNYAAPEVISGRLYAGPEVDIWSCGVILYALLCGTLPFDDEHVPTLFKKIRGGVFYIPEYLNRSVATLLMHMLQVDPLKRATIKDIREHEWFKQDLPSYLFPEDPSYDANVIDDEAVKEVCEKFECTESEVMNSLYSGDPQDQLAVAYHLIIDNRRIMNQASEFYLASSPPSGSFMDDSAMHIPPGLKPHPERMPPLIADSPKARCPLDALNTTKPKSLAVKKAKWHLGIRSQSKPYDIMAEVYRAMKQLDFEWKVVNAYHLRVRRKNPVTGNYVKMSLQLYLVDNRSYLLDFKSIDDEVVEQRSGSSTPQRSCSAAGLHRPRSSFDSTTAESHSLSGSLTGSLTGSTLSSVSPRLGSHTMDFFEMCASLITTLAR
Method: as §1

[25] = target: T25, ALK (Homo sapiens, UniProt Q9UM73)
T25 construct: purchased DiscoverX (KINOMEscan)
Method: as §1

[26] = target: T26, FES (Homo sapiens, UniProt P07332)
T26 construct: purchased DiscoverX (KINOMEscan)
Method: as §1

[27] = target: T27, MAP4K2 (Homo sapiens, UniProt Q12851)
T27 construct: purchased DiscoverX (KINOMEscan)
Method: as §1

[28] = target: T28, JAK2(JH1domain-catalytic) (Homo sapiens, UniProt O60674)
T28 construct: JAK2(JH1domain-catalytic); purchased DiscoverX (KINOMEscan)
Method: as §1

[29] = target: T29, YANK2 (Homo sapiens, UniProt Q9NY57)
T29 construct: purchased DiscoverX (KINOMEscan)
Method: as §1

[30] = target: T30, EPHA1 (Homo sapiens, UniProt P21709)
T30 construct: purchased DiscoverX (KINOMEscan)
Method: as §1

[31] = target: T31, IRAK3 (Homo sapiens, UniProt Q9Y616)
T31 construct: purchased DiscoverX (KINOMEscan)
T31 sequence (Q9Y616 whole entry): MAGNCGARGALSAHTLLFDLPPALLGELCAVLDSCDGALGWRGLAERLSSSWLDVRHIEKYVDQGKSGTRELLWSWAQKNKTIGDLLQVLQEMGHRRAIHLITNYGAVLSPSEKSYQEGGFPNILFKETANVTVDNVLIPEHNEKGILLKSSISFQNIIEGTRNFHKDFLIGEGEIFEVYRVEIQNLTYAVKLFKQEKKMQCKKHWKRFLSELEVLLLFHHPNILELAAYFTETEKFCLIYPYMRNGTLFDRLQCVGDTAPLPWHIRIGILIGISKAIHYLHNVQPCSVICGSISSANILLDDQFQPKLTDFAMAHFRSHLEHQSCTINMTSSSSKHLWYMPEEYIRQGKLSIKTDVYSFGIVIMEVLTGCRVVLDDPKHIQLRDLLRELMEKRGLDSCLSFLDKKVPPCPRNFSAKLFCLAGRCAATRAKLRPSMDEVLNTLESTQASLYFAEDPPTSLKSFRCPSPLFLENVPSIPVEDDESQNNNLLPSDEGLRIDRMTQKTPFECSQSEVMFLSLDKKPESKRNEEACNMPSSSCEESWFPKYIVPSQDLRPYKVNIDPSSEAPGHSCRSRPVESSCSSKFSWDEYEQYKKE
Method: as §1

[32] = target: T32, MRCKA (Homo sapiens, UniProt Q5VT25)
T32 construct: purchased DiscoverX (KINOMEscan)
T32 sequence (Q5VT25 whole entry): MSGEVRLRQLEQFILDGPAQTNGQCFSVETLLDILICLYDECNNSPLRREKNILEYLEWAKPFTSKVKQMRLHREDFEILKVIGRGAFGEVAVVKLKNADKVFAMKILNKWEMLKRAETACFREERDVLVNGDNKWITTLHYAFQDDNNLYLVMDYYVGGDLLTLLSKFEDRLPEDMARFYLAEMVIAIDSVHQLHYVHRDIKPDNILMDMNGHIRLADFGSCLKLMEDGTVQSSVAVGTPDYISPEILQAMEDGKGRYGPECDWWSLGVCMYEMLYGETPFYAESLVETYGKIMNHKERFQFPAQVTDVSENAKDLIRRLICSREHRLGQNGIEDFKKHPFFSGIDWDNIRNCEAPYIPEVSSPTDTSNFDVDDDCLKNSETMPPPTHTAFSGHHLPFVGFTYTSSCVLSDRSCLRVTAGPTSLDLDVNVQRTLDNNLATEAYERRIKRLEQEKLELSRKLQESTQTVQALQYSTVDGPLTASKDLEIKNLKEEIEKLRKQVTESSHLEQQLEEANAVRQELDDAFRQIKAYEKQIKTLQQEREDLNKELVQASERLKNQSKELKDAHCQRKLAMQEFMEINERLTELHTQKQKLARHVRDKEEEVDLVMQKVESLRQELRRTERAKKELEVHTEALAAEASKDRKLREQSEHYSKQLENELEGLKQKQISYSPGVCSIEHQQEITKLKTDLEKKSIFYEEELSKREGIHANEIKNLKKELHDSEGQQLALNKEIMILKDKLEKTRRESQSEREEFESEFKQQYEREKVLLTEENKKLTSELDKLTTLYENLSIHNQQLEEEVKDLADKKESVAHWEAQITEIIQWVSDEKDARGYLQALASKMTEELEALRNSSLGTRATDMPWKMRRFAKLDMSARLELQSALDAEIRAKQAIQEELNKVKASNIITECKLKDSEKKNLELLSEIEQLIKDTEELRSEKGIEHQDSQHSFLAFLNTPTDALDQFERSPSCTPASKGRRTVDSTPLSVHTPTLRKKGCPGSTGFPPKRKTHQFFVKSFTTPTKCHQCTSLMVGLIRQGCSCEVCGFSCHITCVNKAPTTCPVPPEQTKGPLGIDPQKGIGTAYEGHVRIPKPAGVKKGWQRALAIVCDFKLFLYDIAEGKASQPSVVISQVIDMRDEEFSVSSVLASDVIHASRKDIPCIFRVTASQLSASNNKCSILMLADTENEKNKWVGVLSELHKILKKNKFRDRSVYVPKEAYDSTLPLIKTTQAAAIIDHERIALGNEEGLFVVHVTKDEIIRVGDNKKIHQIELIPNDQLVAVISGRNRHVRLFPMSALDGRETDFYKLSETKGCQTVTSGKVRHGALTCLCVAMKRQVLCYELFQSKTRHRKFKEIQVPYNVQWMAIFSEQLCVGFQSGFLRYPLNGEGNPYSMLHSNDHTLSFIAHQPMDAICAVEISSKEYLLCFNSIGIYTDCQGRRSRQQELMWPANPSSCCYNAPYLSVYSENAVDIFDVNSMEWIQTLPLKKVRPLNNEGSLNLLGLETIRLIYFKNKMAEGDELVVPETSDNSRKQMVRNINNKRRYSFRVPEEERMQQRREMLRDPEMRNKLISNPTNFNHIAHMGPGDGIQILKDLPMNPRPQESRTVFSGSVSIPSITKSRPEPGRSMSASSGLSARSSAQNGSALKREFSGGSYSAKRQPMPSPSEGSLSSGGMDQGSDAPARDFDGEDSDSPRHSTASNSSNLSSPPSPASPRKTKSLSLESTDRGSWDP
Method: as §1

[33] = target: T33, DCAMKL1 (Homo sapiens, UniProt O15075)
T33 construct: purchased DiscoverX (KINOMEscan)
Method: as §1

[34] = target: T34, TRKC (Homo sapiens, UniProt Q16288)
T34 construct: purchased DiscoverX (KINOMEscan)
Method: as §1

[35] = target: T35, BIKE (Homo sapiens, UniProt Q9NSY1)
T35 construct: purchased DiscoverX (KINOMEscan)
Method: as §1

[36] = target: T36, ABL1-phosphorylated (Homo sapiens, UniProt P00519)
T36 construct: purchased DiscoverX (KINOMEscan)
Method: as §1

COc1cc(/C=C2\N=C(N)NC2=O)ccc1O [Polyandrocarpamine A]
Score [1]: 46 | Score [2]: 100 | Score [3]: 100 | Score [4]: 100 | Score [5]: 100 | Score [6]: 100 | Score [7]: 100 | Score [8]: 100 | Score [9]: 70 | Score [10]: 85 | Score [11]: 100 | Score [12]: 100 | Score [13]: 100 | Score [14]: 100 | Score [15]: 100 | Score [16]: 100 | Score [17]: 100 | Score [18]: 100 | Score [19]: 87 | Score [20]: 100 | Score [21]: 87 | Score [22]: 92 | Score [23]: 89 | Score [24]: 87 | Score [25]: 100 | Score [26]: 96 | Score [27]: 97 | Score [28]: 97 | Score [29]: 94 | Score [30]: 100 | Score [31]: 98 | Score [32]: 100 | Score [33]: 98 | Score [34]: 82 | Score [35]: 70 | Score [36]: 100
